Source: patent EP0097633B1, “Determination of the sensitivity of virus to antiviral agents” (Wahren, Britta, priority 1982, dated 1984)
Where two headings read alike, the source gives them in different places.

What was measured:
HSV = test: Virus sensitivity assay (VSA): HSV patient material replicated in HL-cells with antiviral agent, cell disruption, virus antigen by ELISA sandwich technique (Example 1); format: cell-based, herpes simplex virus (HSV); settings: for absorbance (A) at 405 nm: disrupted cells, culture of 1 to 3 days; for sensitivity of the investigated HSV to the antiviral agent: read from Fig. 1
Description: A material from a patient containing living HSV is mixed with a small amount of Eagle's tissue culture medium containing 2% of calf serum, 100 IE penicillin/ml and 100 […] of streptomycin/ml, after which the virus mixture is diluted 1:30 in this medium.
(§1) Sterile plastic plates comprising 24 wells, each having a culture surface of 2.5 cm^2 and containing about 5 x 10^5 HL-cells/well were inoculated with 0.1 ml of virus dilutions as above. Such of the above virus dilutions only containing a small amount of virus are first cultured for 3 days in HL-cells, on which virus replicates, after which the virus isolate from one cell passage is taken out, is diluted 1:30 and 0.1 ml of the dilutions is added to the plates as indicated above. The cells are then incubated at a temperature of 32-37°C, with addition of different antiviral agents, and without any addition of antiviral agent to obtain reference values. Each antiviral agent is added in a dilution series comprising six different concentrations (Cl-C6), some of which correspond to desired serum concentrations for the treatment of patients. In table 1 is indicated the antiviral agents and concentrations thereof used.
As a background control of virus replication taking place and for a direct typing of virus 2 cell containing wells/plate are inoculated with a mixture of 0.1 ml virus dilution and 0.05 ml of Brij-58 of 1%.
After a culture of 1 to 3 days the effect of the antiviral agents is then evaluated by measurement with ELISA sandwich technique as described below. However, the cells are treated in the following way before this measurement.
(§2) The supernatant is sucked off and in order to achieve cell disrupture 800 µl of distilled water are added to the cells on the plates. The plates are frozen at -20°C and after some time sufficient for formation of ice crystals (about 15 min) the plates are thawed to room temperature for measurement of virus antigen. If desired, the plates can be preserved in a frozen state for a long time before they are thawed in order to carry out the measurement of virus antigen. When the plates have thawed 200 µl of NaCI of 4.5% are added to the cells in order to obtain an isotonic solution.
(§3) The amount of virus antigen formed is thereafter determined as follows. Guinea pig anti-HSV-serum is diluted in 0.1-M sodium carbonate buffer. 0.1 ml of the serum dilution is filled per well in microplates (M 29 AR, Dynatech, Zug, Switzerland) which have been washed three times with NaCI-solution of 0.9% containing 0.05% of Tween® 20, after which the plates are incubated for 16 hours at room temperature. The plates can be preserved sealed with their contents at +4°C up to 2-3 months. The optimal antibody concentration has been determined by antibody titration with the respective antigen and control antigen.
0.1 ml of the cell material obtained above or a known virus antigen is filled into plates treated with antibody and is incubated for 4 hours at +4°C. After washing with the washing solution indicated above 0.1 ml of rabbit anti-HSV is added and the plates are incubated for 2 hours at +37°C. The plates are washed and 0.1 ml of conjugate is added, after which they are incubated for 2 hours at +37°C. The conjugate consists of pig anti-rabbit IgG conjugated with alkaline phosphatase (Orion Diagnostica, Helsinki, Finland) in a dilution of 1:100. Non-bonded conjugate is washed off before 100 pl of the substrate p-nitrophenyl phosphate (1 mg/ml, Sigma, St Louis, MO, USA) are added. For dilution of the substrate 1 M diethanol buffer, pH 9.8 containing 0.5 x 10-^3 M MgC12 is used and for dilution of antisera and conjugate phosphate buffer (PBS), pH 7.3-7.4 with 0.5% of Tween® 20, 0.5% of BSA (bovine serum albumin) and 0.02% of NaN3 is used. The reaction is stopped after 20-60 min with 0.025 ml of 5 M NaOH. The absorbance (A) is thereafter read at 405 nm with Titertek Multiskan® (Flow Laboratories, Irvine, Scotland). […]

[1] = tested on: virus isolate from an eye IDU treated with without result; test: VSA on a virus isolate from an eye treated with IDU without result (Example 3); format: cell-based
Description: as §1, §2
as §3, with “months.” for “months. The optimal antibody concentration has been determined by antibody titration with the respective antigen and control antigen.”
(§4) 0.1 ml of the cell material obtained above or a known virus antigen is filled into plates treated with antibody and is incubated for 4 hours at +4°C. After washing with the washing solution indicated above 0.1 ml of rabbit anti-HSV is added and the plates are incubated for 2 hours at +37°C. The plates are washed and 0.1 ml of conjugate is added, after which they are incubated for 2 hours at +37°C. The conjugate consists of pig anti-rabbit IgG conjugated with alkaline phosphatase (Orion Diagnostica, Helsinki, Finland) in a dilution of 1:100. Non-bonded conjugate is washed off before 100 pl of the substrate p-nitrophenyl phosphate (1 mg/ml, Sigma, St Louis, MO, USA) are added. For dilution of the substrate 1 M diethanol buffer, pH 9.8 containing 0.5 x 10-^3 M MgC12 is used and for dilution of antisera and conjugate phosphate buffer (PBS), pH 7.3-7.4 with 0.5% of Tween® 20, 0.5% of BSA (bovine serum albumin) and 0.02% of NaN3 is used. The reaction is stopped after 20-60 min with 0.025 ml of 5 M NaOH. The absorbance (A) is thereafter read at 405 nm with Titertek Multiskan® (Flow Laboratories, Irvine, Scotland).

HSV-1 = test: VSA on HL-cells infected with HSV-1, virus antigen measured in supernatant and in cells disrupted with distilled water (Example 2); format: cell-based; settings: for Absorbance values at 405 nm: 3 days
Description: as §1, §2, §3
as §4, with “Scotland). Absorbance values then obtained at the concentrations C1―C6 of the antiviral agents from table 1 and at the concentration Co = O are indicated in the following table 2.” for “Scotland).”
HL-cells infected with HSV-1 were incubated in the same way as in example 1 in the presence of Ara-A and IDU in the concentrations indicated in table 1 for 3 days. Reference culture without addition of antiviral agent was also carried out. The virus antigen in the supernatant (---) and in cells disrupted with distilled water (-) was thereafter measured in the same way as in example 1, and the results are found in table 3 and Fig. 2.

[2] = cited from earlier work
[3] = C1: Ara-A 5, ACV 0.15, PFA 25, IDU 0.5 μM, C0 (no agent) 1.425
[4] = C2: Ara-A 10, ACV 0.31, PFA 50, IDU 1 μM, C0 1.425
[5] = C3: Ara-A 20, ACV 0.63, PFA 100, IDU 2 μM, C0 1.425
[6] = C4: Ara-A 40, ACV 1.25, PFA 200, IDU 4 μM, C0 1.425
[7] = C5: Ara-A 80, ACV 2.5, PFA 400, IDU 8 μM, C0 1.425
[8] = C6: Ara-A 160, ACV 5, PFA 800, IDU 16 μM, C0 1.425
[9] = C1: Ara-A 5, ACV 0.15, PFA 25, IDU 0.5 μM, C0 (no agent) 1.605
[10] = C2: Ara-A 10, ACV 0.31, PFA 50, IDU 1 μM, C0 1.605
[11] = C3: Ara-A 20, ACV 0.63, PFA 100, IDU 2 μM, C0 1.605
[12] = C4: Ara-A 40, ACV 1.25, PFA 200, IDU 4 μM, C0 1.605
[13] = C5: Ara-A 80, ACV 2.5, PFA 400, IDU 8 μM, C0 1.605
[14] = C6: Ara-A 160, ACV 5, PFA 800, IDU 16 μM, C0 1.605
[15] = cells disrupted with distilled water, C1: Ara-A 5, IDU 0.5 μM
[16] = cells disrupted with distilled water, C2: Ara-A 10, IDU 1 μM
[17] = cells disrupted with distilled water, C3: Ara-A 20, IDU 2 μM
[18] = cells disrupted with distilled water, C4: Ara-A 40, IDU 4 μM
[19] = cells disrupted with distilled water, C5: Ara-A 80, IDU 8 μM
[20] = cells disrupted with distilled water, C6: Ara-A 160, IDU 16 μM
[21] = supernatant, C1: Ara-A 5, IDU 0.5 μM
[22] = supernatant, C2: Ara-A 10, IDU 1 μM
[23] = supernatant, C3: Ara-A 20, IDU 2 μM
[24] = supernatant, C4: Ara-A 40, IDU 4 μM
[25] = supernatant, C5: Ara-A 80, IDU 8 μM
[26] = supernatant, C6: Ara-A 160, IDU 16 μM

Row | SMILES | absorbance (A) at 405 nm (HSV; [3]) | absorbance (A) at 405 nm (HSV; [4]) | absorbance (A) at 405 nm (HSV; [5]) | absorbance (A) at 405 nm (HSV; [6]) | absorbance (A) at 405 nm (HSV; [7]) | absorbance (A) at 405 nm (HSV; [8]) | sensitivity of the investigated HSV to the antiviral agent (HSV) | adsorbance values [1, 9] | adsorbance values [1, 10] | adsorbance values [1, 11] | adsorbance values [1, 12] | adsorbance values [1, 13] | adsorbance values [1, 14] | Absorbance values at 405 nm (HSV-1; [15]) | Absorbance values at 405 nm (HSV-1; [16]) | Absorbance values at 405 nm (HSV-1; [17]) | Absorbance values at 405 nm (HSV-1; [18]) | Absorbance values at 405 nm (HSV-1; [19]) | Absorbance values at 405 nm (HSV-1; [20]) | Absorbance values at 405 nm (HSV-1; [21]) | other results
1 | Nc1nc2c(ncn2COCCO)c(=O)[nH]1 [ACV, acyclovir] | 1.382 | 1.135 | 0.958 | 0.810 | 0.547 | 0.361 | high sensitivity | 1.608 | 1.615 | 1.594 | 1.179 | 1.475 | 1.415 | – | – | – | – | – | – | – | –
2 | Nc1ncnc2c1ncn2C1OC(CO)C(O)C1O (centres unmarked) [Ara-A, adenosine-arabinoside] | 1.505 | 1.132 | 1.017 | 0.892 | 0.520 | 0.473 | – | 1.572 | 1.482 | 0.750 | 0.155 | 0.071 | 0.039 | 1.130 ± 0.052 | 1.073 ± 0.054 | 0.863 ± 0.030 | 0.513 ± 0.025 | 0.142 ± 0.009 | 0.119 | 0.384 ± 0.025 | 50% of inhibition of antigen formation in the cells (HSV-1; read from Fig. 2, disrupted cells): in clinically relevant concentrations; Absorbance values at 405 nm (HSV-1; [22]): 0.323 ± 0.010; Absorbance values at 405 nm (HSV-1; [23]): 0.276 ± 0.006; Absorbance values at 405 nm (HSV-1; [24]): 0.184 ± 0.009; Absorbance values at 405 nm (HSV-1; [25]): 0.099 ± 0.006; Absorbance values at 405 nm (HSV-1; [26]): 0.099
3 | O=c1[nH]c(=O)n([C@H]2C[C@H](O)[C@@H](CO)O2)cc1I [IDU, iododeoxyuridine] | 1.011 | 0.847 | 0.671 | 0.536 | 0.344 | 0.298 | – | 1.207 | 1.165 | 0.951 | 0.739 | 0.706 | 0.502 | 1.130 ± 0.052 | 1.075 ± 0.054 | 0.863 ± 0.030 | 0.513 ± 0.025 | 0.142 ± 0.009 | 0.119 | 0.320 ± 0.037 | Serum concentrations used clinically ([2]; concentrations are measured in lachrymal fluid): 4—400^1 μM or IU/ml; Absorbance values at 405 nm (HSV-1; [22]): 0.259 ± 0.005; Absorbance values at 405 nm (HSV-1; [23]): 0.201 ± 0.025; Absorbance values at 405 nm (HSV-1; [24]): 0.142 ± 0.019; Absorbance values at 405 nm (HSV-1; [25]): 0.091 ± 0.017; Absorbance values at 405 nm (HSV-1; [26]): 0.143
4 | O=C(O)P(=O)(O)O [PFA, phosphonoformic acid] | 1.437 | 1.391 | 1.346 | 1.321 | 0.893 | 0.310 | a lower one | 1.487 | 1.502 | 0.656 | 0.216 | 0.092 | 0.083 | – | – | – | – | – | – | – | Serum concentrations used clinically ([2]; serum, desired concentrations for the treatment of patients): 100 μM or IU/ml
